Results reported in patent US20230183237A1, “COMPETITIVE AND NONCOMPETITIVE INHIBITORS OF THE MUSCARINIC ACETYLCHOLINE RECEPTOR M5” (Vanderbilt University, priority 2020, published 2023).
Like-named read-outs stand apart in the source and are kept apart here.

Target: T1, hM5 (Homo sapiens, UniProt P08912)
T1 construct: expressed in transfected cells
T1 sequence (P08912 1-532): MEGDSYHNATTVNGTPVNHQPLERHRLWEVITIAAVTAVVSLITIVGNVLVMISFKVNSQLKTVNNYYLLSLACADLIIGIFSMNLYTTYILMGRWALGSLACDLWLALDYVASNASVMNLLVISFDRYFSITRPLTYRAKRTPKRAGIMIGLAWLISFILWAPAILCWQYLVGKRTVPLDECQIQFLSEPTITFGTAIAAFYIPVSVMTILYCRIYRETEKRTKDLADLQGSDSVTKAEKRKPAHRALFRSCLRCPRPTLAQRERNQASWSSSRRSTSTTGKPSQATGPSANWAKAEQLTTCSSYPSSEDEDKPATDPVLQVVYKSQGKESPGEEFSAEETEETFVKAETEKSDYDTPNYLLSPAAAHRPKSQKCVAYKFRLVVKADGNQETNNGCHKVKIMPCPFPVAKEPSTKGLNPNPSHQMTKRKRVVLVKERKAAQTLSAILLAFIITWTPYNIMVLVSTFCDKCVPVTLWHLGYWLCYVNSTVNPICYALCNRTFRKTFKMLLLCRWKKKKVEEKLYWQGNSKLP
Test: Calcium mobilization concentration-response (IC50 vs EC80 acetylcholine), CHO hM5
Type: cell-based
Conditions: CELL LINE hM5, read-out: IC50
Description: Initial, single point (10 μM) compound characterization was performed in stable Chinese Hamster Ovary (CHO) cell lines constitutively expressing human M5 receptors. These were plated at 15,000 cells per 20 μL per well in Greiner 384-well black-walled, TC-treated, clear-bottomed plates (Fisher) in Ham's F12 medium supplemented with 10% FBS and 20 mM HEPES. Cells were incubated overnight at 37° C. under 5% CO2. The following day, medium was exchanged with assay buffer (Hank's Balanced Salt Solution supplemented with 20 mM HEPES and 2.5 mM Probenecid, pH 7.4) leaving 20 μL of assay buffer in each well. […] The cells were then incubated 50 minutes at 37° C. under 5% CO2. The assay buffer plus dye was then exchanged with fresh assay buffer leaving a volume of 20 μL in each well. Test compounds were diluted into assay buffer to a 2X (20 μM) concentration in 0.2% dimethylsulfoxide (DMSO) in columns 3-22 with matching DMSO concentration in columns 1, 2, 23, and […]; compounds were added to the assay for a final concentration of 10 μM and a final DMSO concentration of 0.1%.
Either an FDSS (Hamamatsu) or Panoptic (WaveFront Biosciences) kinetic imaging plate reader was used for assay execution and measurement of calcium flux. After establishing baseline fluorescence, test compounds (20 μL) were added to the cells using the reader's integrated pipettor and allowed to equilibrate for 140 seconds before addition of the […] concentration of acetylcholine (10 μL) along with vehicle in selected DMSO-only wells in the outer two columns . […] The raw fluorescence data from each well was normalized to the corresponding initial fluorescence reading (static ratio). The maximum fluorescence value following each addition was determined and the minimum value within that same timeframe was subtracted for each well then normalized to the average of the ECffiax maximum-minimum response, providing a % AChmax value for each addition for each well. The single point values represent mean values determined within the ECsu addition timeframe obtained from at least three independent determinations performed in triplicate or greater (error bars represent +/−SEM) unless otherwise specified.
CHO cells stably expressing hM1, hM2/Gqi5, hM3, hM4/Gqi5, hM5, rM1/Gqi5, rM3, rM4/Gqi5, or rM5 were plated in the manner described above. […] FDSS protocols were carried out as described above; the static ratio was calculated and the minimum response subtracted from the maximum response within the timeframe of each addition. This max-min response was then normalized to the maximum acetylcholine response. Calculation of IC50 was performed using the percent maximum acetylcholine response for the EC80 addition through the Vortex and Studies modules of the Dotmatics data management software. Results are stored in the Dotrnatics database and an audit trail of any changes to their analysis is generated. Data shown represent mean values obtained from at least three independent determinations performed in triplicate or greater (error bars represent±SEM) unless otherwise specified.

[1] = calcium mobilization, EC80 acetylcholine addition

| IC50 [1] [µM] | IC50 (vs EC80 acetylcholine) [µM] | Structure (SMILES) |
| --- | --- | --- |
| > 10 |  | O=S(=O)(c1ccc2c(c1)CCO2)N1CCC(c2cc(-c3ccco3)n[nH]2)CC1 [Compound 4, 1-((2,3-dihydrobenzofuran-5-yl)sulfonyl)-4-(3-(furan-2-yl)-1H-pyrazol-5-yl)piperidine] |
| > 10 |  | Cc1nc2cc(C)c(C3CCN(S(=O)(=O)c4ccc5ncsc5c4)CC3)cn2n1 [Compound 78, 6-((4-(2,7-dimethyl-[1,2,4]triazolo[1,5-a]pyridin-6-yl)piperidin-1-yl)sulfonyl)benzo[d]thiazole] |
| 0.234 |  | Cc1ncc(S(=O)(=O)N2CCC(c3cn4ncnc4cc3C(F)(F)F)CC2)n1C [Compound 277, 6-(1-((1,2-dimethyl-1H-imidazol-5-yl)sulfonyl)piperidin-4-yl)-7-(trifluoromethyl)-[1,2,4]triazolo[1,5-a]pyridine] |
| > 10 |  | Cc1nc2cc(C)c(C3CCN(S(=O)(=O)c4cn(C)nc4C)CC3)cn2n1 [Compound 79, 6-(1-((1,3-dimethyl-1H-pyrazol-4-yl)sulfonyl)piperidin-4-yl)-2,7-dimethyl-[1,2,4]triazolo[1,5-a]pyridine] |
|  | > 10 | Cc1cc2ncnn2cc1C1CCN(S(=O)(=O)c2cnn(C)c2CN2Cc3ncccc3C2=O)CC1 [Compound 597, 6-((1-Methyl-4-((4-(7-methyl-[1,2,4]triazolo[1,5-a]pyridin-6-yl)piperidin-1-yl)sulfonyl)-1H-pyrazol-5-yl)methyl)-6,7-dihydro-5H-pyrrolo[3,4-b]pyridin-5-one] |
| 0.005 |  | O=S(=O)(c1cnn2c1CCCC2)N1CC=C(c2cn3ncnc3cc2Cl)CC1 [Compound 242, 7-chloro-6-(1-((4,5,6,7-tetrahydropyrazolo[1,5-a]pyridin-3-yl)sulfonyl)-1,2,3,6-tetrahydropyridin-4-yl)-[1,2,4]triazolo[1,5-a]pyridine] |
| 1.47 |  | Cc1cc2ncnn2cc1C1CCN(S(=O)(=O)c2cnn(C)c2Cl)C(C)C1 (centres unmarked) [Compound 361, 6-(1-((5-chloro-1-methyl-1H-pyrazol-4-yl)sulfonyl)-2-methylpiperidin-4-yl)-7-methyl-[1,2,4]triazolo[1,5-a]pyridine] |
| 0.096 |  | Cc1cc2ncnn2cc1C1CCN(S(=O)(=O)c2cnn(C)c2C(F)(F)F)CC1 [Compound 162, 7-methyl-6-(1-((1-methyl-5-(trifluoromethyl)-1H-pyrazol-4-yl)sulfonyl)piperidin-4-yl)-[1,2,4]triazolo[1,5-a]pyridine] |
|  | 0.414 | Cn1ncc(S(=O)(=O)N2CCC(c3cn4ncnc4cc3C(F)F)CC2)c1CC#N [Compound 456, 2-(4-((4-(7-(difluoromethyl)-[1,2,4]triazolo[1,5-a]pyridin-6-yl)piperidin-1-yl)sulfonyl)-1-methyl-1H-pyrazol-5-yl)acetonitrile] |
|  | > 10 | COC1(c2cn3ncnc3cc2C)CCN(S(=O)(=O)c2cnn(C)c2Cl)CC1 [Compound 415, 6-(1-((5-chloro-1-methyl-1H-pyrazol-4-yl)sulfonyl)-4-methoxypiperidin-4-yl)-7-methyl-[1,2,4]triazolo[1,5-a]pyridine] |
|  | 4.77 | CCc1cc2ncnn2cc1C1CCN(S(=O)(=O)c2cnc(Cl)s2)CC1 [Compound 513, 2-chloro-5-((4-(7-ethyl-[1,2,4]triazolo[1,5-a]pyridin-6-yl)piperidin-1-yl)sulfonyl)thiazole] |
| > 10 |  | O=S(=O)(c1ccc2c(c1)CCO2)N1CCC(c2cc3cnccc3s2)CC1 [Compound 14, 2-(1-((2,3-dihydrobenzofuran-5-yl)sulfonyl)piperidin-4-yl)thieno[3,2-c]pyridine] |
|  | 6.35 | Cc1ncc(S(=O)(=O)N2CCC(c3nn4ncnc4cc3C)CC2)o1 [Compound 488, 2-methyl-5-((4-(7-methyl-[1,2,4]triazolo[1,5-b]pyridazin-6-yl)piperidin-1-yl)sulfonyl)oxazole] |
| 1.64 |  | Cc1ccncc1C1CCN(S(=O)(=O)c2cnn(C)c2Cl)CC1 [Compound 383, 3-(1-((5-chloro-1-methyl-1H-pyrazol-4-yl)sulfonyl)piperidin-4-yl)-4-methylpyridine] |
| 2.4 |  | Cc1nn(C)cc1S(=O)(=O)N1CCC(c2cn3ncnc3cc2C(F)(F)F)CC1 [Compound 113, 6-(1-((1,3-dimethyl-1H-pyrazol-4-yl)sulfonyl)piperidin-4-yl)-7-(trifluoromethyl)-[1,2,4]triazolo[1,5-a]pyridine] |
| 1.9 |  | Cc1cc(S(=O)(=O)N2CCC(c3cn4ncnc4cc3C(F)(F)F)CC2)c(C)s1 [Compound 280, 6-(1-((2,5-dimethylthiophen-3-yl)sulfonyl)piperidin-4-yl)-7-(trifluoromethyl)-[1,2,4]triazolo[1,5-a]pyridine] |
| 0.073 |  | CCc1cc2ncnn2cc1C1CCN(S(=O)(=O)c2cnn(C)c2C)CC1 [Compound 297, 6-(1-((1,5-dimethyl-1H-pyrazol-4-yl)sulfonyl)piperidin-4-yl)-7-ethyl-[1,2,4]triazolo[1,5-a]pyridine] |
| 0.765 |  | COc1cc2ncnn2cc1C1CCN(S(=O)(=O)c2cnn(C)c2C)CC1 [Compound 201, 6-(1-((1,5-dimethyl-1H-pyrazol-4-yl)sulfonyl)piperidin-4-yl)-7-methoxy-[1,2,4]triazolo[1,5-a]pyridine] |
|  | 0.016 | Cc1cc(N(C)C)ncc1C1CCN(S(=O)(=O)c2cnc3sccn23)CC1 [Compound 566, 5-(1-(imidazo[2,1-b]thiazol-5-ylsulfonyl)piperidin-4-yl)-N,N,4-trimethylpyridin-2-amine] |
| 6.9 |  | Cc1ncc(S(=O)(=O)N2CC=C(c3cn4nc(C(F)F)nc4cc3C)CC2)s1 [Compound 317, 5-((4-(2-(Difluoromethyl)-7-methyl-[1,2,4]triazolo[1,5-a]pyridin-6-yl)-3,6-dihydropyridin-1(2H)-yl)sulfonyl)-2methylthiazole] |
| 0.053 |  | [2H]C([2H])([2H])n1cc(S(=O)(=O)N2CCC(c3cn4ncnc4cc3C)CC2)c(Cl)n1 [Compound 256, 6-(1-((3-chloro-1-(methyl-d3)-1H-pyrazol-4-yl)sulfonyl)piperidin-4-yl)-7-methyl-[1,2,4]triazolo[1,5-a]pyridine] |
| 0.065 |  | O=S(=O)(c1cnn2c1CCC2)N1CC=C(c2cc3ncnn3cc2Cl)CC1 [Compound 195, 6-chloro-7-(1-((5,6-dihydro-4H-pyrrolo[1,2-b]pyrazol-3-yl)sulfonyl)-1,2,3,6-tetrahydropyridin-4-yl)-[1,2,4]triazolo[1,5-a]pyridine] |
| > 10 |  | Cc1sc(C#N)nc1C1CCN(S(=O)(=O)c2cnn(C)c2C)CC1 [Compound 225, 4-(1-((1,5-dimethyl-1H-pyrazol-4-yl)sulfonyl)piperidin-4-yl)-5-methylthiazole-2-carbonitrile] |
|  | 0.529 | COc1ncc(S(=O)(=O)N2CCC(c3cn4ncnc4cc3C)CC2)s1 [Compound 600, 2-methoxy-5-((4-(7-methyl-[1,2,4]triazolo[1,5-a]pyridin-6-yl)piperidin-1-yl)sulfonyl)thiazole] |
| > 10 |  | [2H]C1([2H])Oc2ccc(S(=O)(=O)N3CCC(c4cn5ncnc5cc4OC)CC3)cc2C1([2H])[2H] [Compound 92, 6-(1-((2,3-dihydrobenzofuran-5-yl-2,2,3,3-d4)sulfonyl)piperidin-4-yl)-7-methoxy-[1,2,4]triazolo[1,5-a]pyridine] |
| 2.6 |  | CCc1cc2ncnn2cc1C1CCN(S(=O)(=O)c2cnn(C)c2C(F)(F)F)CC1 [Compound 331, 7-ethyl-6-(1-((1-methyl-5-(trifluoromethyl)-1H-pyrazol-4-yl)sulfonyl)piperidin-4-yl)-[1,2,4]triazolo[1,5-a]pyridine] |
